Measured values from patent US20060111420A1, “Sorbicillactone-a derivatives for the treatment of tumour and viral diseases” (Johannes Gutenberg-Universitat Mainz, priority 2002, published 2006).

Legend:
[1] = system: L5178y mouse lymphoma cellular system (ATCC CRL 1722); assay: Antitumoural activity, L5178y cell proliferation (XTT); type: cell-based; conditions: for Optical density (595 nm): 72 h, XTT, control 0.38; for cellular proliferation after 72 h: at >0.1 μg/ml
[2] = biological target: phospholipase A2 [from bee's poison] (Apis mellifera, UniProt P00630); assay: biochemical; conditions: read-out: inhibition of phospholipase A2
Chain of phospholipase A2 [from bee's poison] (P00630 34-167 limits assumed): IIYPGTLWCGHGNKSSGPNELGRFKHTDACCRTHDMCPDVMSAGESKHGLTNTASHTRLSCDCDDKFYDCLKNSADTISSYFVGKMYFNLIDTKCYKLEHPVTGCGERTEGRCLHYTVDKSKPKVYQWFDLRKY

mice-ear oedema = assay: TPA-induced mice-ear oedema; type: in vivo, mice (Swiss); conditions: 20 μg topically 10 min after TPA (10 μg); n=5; P<=0.01
[3] = system: human foreskin-fibroblasts; assay: Proliferation of human foreskin-fibroblasts; type: cell-based; conditions: 30 μg/ml; cell count microscopically

SMILES	Optical density (595 nm) ([1]; 0.1 μg/ml)	Optical density (595 nm) ([1]; 0.3 μg/ml)	Optical density (595 nm) ([1]; 1.0 μg/ml)	Optical density (595 nm) ([1]; 3.0 μg/ml)	cellular proliferation after 72 h [1]	inhibition at 2 µg/mL [2] [%]	inhibition of the formation of the oedema (mice-ear oedema) [%]	effect on the proliferation [3]	mortality (NMRI-mice; 20 mg/kg per day i.p. for five days)	sub-acute toxicity (NMRI-mice; male, NMRI, mouse, in vivo, ip, 5 days) [mg/kg]
C/C=C/C=C/C(O)=C1/C(=O)C(C)=C(O)C2(C)OC(=O)C(C)(NC(=O)C3NN=CC3C(=O)OC)C12 (stereo not drawn) [SOA-D1]	0.29	0.22	0.05	0.03	drastically reduced	–	–	–	–	–
C/C=C/C=C/C(O)=C1/C(=O)C(C)=C(O)[C@@]2(C)OC(=O)[C@@](C)(NC(=O)/C=C/C(=O)O)[C@@H]12 [Sorbicillacton A, sorbicillacton A]	0.24	0.19	0.07	0.06	drastically reduced	~80	39.2±5.3	no effect on the proliferation	None of the test animals dies	> 20
